The source of these data is patent US11180504B2 (ORCHID PHARMA LTD., priority 2016, dated 2021).

In brackets after ≈: the same amount, converted by molar mass.

Test [1] concerns carbapenem sensitive Pseudomonas aeruginosa. Description: MIC by broth micro-dilution (CLSI), carbapenem sensitive P. aeruginosa. The format is cell-based. To be noted: Pseudomonas aeruginosa, ATCC27853, Meropenem susceptible P. aeruginosa ATCC27853; read-out: MIC.
Test [2] has as its system carbapenem sensitive Escherichia coli. Put plainly: MIC by broth micro-dilution (CLSI), carbapenem sensitive E. coli. The test is classed as cell-based. To be noted: Escherichia coli, ATCC25922, ESBL −ve E. coli ATCC25922; read-out: MIC.
Test [3] has as its system methicillin-sensitive Staphylococcus aureus. Description: MIC by broth micro-dilution (CLSI), methicillin-sensitive S. aureus. The format is cell-based. The note with it: Staphylococcus aureus, ATCC 29213 / MSSA, MSSA S. aureus ATCC29213; read-out: MIC.
Test [4] concerns carbapenemase producing K. pneumoniae. Put plainly: MIC by broth micro-dilution (CLSI), carbapenemase producing K. pneumoniae. The format is cell-based, Klebsiella pneumoniae. To be noted: Klebsiella pneumoniae, ATCCBAA1705, KPC-2 K. pneumoniae ATCC BAA-1705; read-out: MIC.

As for `C[C@@H](NC(=O)C(F)F)[C@H]1C(=O)N2C(C(=O)O)=C(S[C@@H]3CN[C@H](CNC(=O)[C@@H]4CC[C@H](N)C4)C3)[C@H](C)[C@H]12` [Example 260], the MIC in test [1] was found to be 32 mg/L (≈ 60.4 µM); in test [2], 4 mg/L (≈ 7.55 µM); in test [3], 1 mg/L (≈ 1.89 µM); in test [4], 8 mg/L (≈ 15.1 µM).
Take `C[C@@H](NC(=O)C(F)F)[C@H]1C(=O)N2C(C(=O)O)=C(S[C@@H]3CN[C@H](CNC(=O)[C@@H]4C[C@@H](N)CN4)C3)[C@H](C)[C@H]12` [Example 261]: the MIC stood at 64 mg/L (≈ 121 µM) in test [1], 2 mg/L (≈ 3.77 µM) in test [2], 2 mg/L (≈ 3.77 µM) in test [3] and 16 mg/L (≈ 30.2 µM) in test [4].
As for `CNCC(=O)N[C@H](C)[C@H]1C(=O)N2C(C(=O)O)=C(S[C@@H]3CN[C@H](CNC(=O)[C@@H]4CCC(N)C4)C3)[C@H](C)[C@H]12` (some centres unmarked) [Example 262], the MIC in test [1] was 64 mg/L (≈ 122 µM); in test [2], 4 mg/L (≈ 7.65 µM); in test [3], 32 mg/L (≈ 61.2 µM); in test [4], 16 mg/L (≈ 30.6 µM).
`C[C@@H](NC(=O)C(F)F)[C@H]1C(=O)N2C(C(=O)O)=C(SC3CN(C4=NCCS4)C3)[C@H](C)[C@H]12` [Example 263]: the MIC in test [1] is 128 mg/L (≈ 278 µM); in test [2], 0.25 mg/L (≈ 0.543 µM); in test [3], 0.25 mg/L (≈ 0.543 µM); in test [4], 2 mg/L (≈ 4.34 µM).
For the molecule `CNCC(=O)N[C@H](C)[C@H]1C(=O)N2C(C(=O)O)=C(S[C@@H]3CN[C@H](C(=O)N4CC[C@H](N)C[C@@H]4C)C3)[C@H](C)[C@H]12` [Example 264], the minimum inhibitory concentration (MIC) is 8 mg/L (≈ 15.3 µM) in test [1], 2 mg/L (≈ 3.83 µM) in test [2], 16 mg/L (≈ 30.6 µM) in test [3] and 4 mg/L (≈ 7.65 µM) in test [4].
Turning to `CC(=O)N1C[C@@H](N)C[C@H]1CSC1=C(C(=O)O)N2C(=O)[C@H]([C@@H](C)NC(=O)C(F)F)[C@H]2[C@H]1C` [Example 265], the minimum inhibitory concentration (MIC) is greater than 128 mg/L in test [1], 2 mg/L (≈ 4.34 µM) in test [2], 2 mg/L (≈ 4.34 µM) in test [3] and 8 mg/L (≈ 17.4 µM) in test [4].
Turning to `C[C@@H](NC(=O)[C@H]1CC[C@@H](N)C1)[C@H]1C(=O)N2C(C(=O)O)=C(S[C@@H]3CN[C@H](C(=O)N(C)C)C3)[C@H](C)[C@H]12` [Example 266], the MIC in test [1] came out at 128 mg/L (≈ 259 µM); in test [2], 2 mg/L (≈ 4.05 µM); in test [3], 64 mg/L (≈ 130 µM); in test [4] it was 8 mg/L (≈ 16.2 µM).
The corresponding values for `C[C@@H](NC(=O)C(F)F)[C@H]1C(=O)N2C(C(=O)O)=C(SC[C@@H]3C[C@H](NS(N)(=O)=O)CN3)[C@H](C)[C@H]12` [Example 267] are greater than 128 mg/L, 1 mg/L (≈ 2.01 µM), 0.5 mg/L (≈ 1 µM) and 2 mg/L (≈ 4.02 µM).
For the molecule `C[C@@H](NC(=O)CC(N)=O)[C@H]1C(=O)N2C(C(=O)O)=C(S[C@@H]3CN[C@H](C(=O)N(C)C)C3)[C@H](C)[C@H]12` [Example 268], the MIC is 32 mg/L (≈ 68.4 µM) in test [1], 2 mg/L (≈ 4.28 µM) in test [2], 8 mg/L (≈ 17.1 µM) in test [3] and 4 mg/L (≈ 8.56 µM) in test [4].
The corresponding values for `CNCC(=O)N[C@H](C)[C@H]1C(=O)N2C(C(=O)O)=C(SC[C@@H]3C[C@H](NS(N)(=O)=O)CN3)[C@H](C)[C@H]12` [Example 269] are 128 mg/L (≈ 261 µM), 4 mg/L (≈ 8.15 µM), 16 mg/L (≈ 32.6 µM) and 4 mg/L (≈ 8.15 µM).
Taken in the same sequence, the figures for `C[C@@H](NC(=O)[C@@H]1CSCN1)[C@H]1C(=O)N2C(C(=O)O)=C(S[C@@H]3CN[C@H](C(=O)N(C)C)C3)[C@H](C)[C@H]12` [Example 270] were 64 mg/L (≈ 129 µM), 1 mg/L (≈ 2.01 µM), 4 mg/L (≈ 8.04 µM) and 4 mg/L (≈ 8.04 µM).
`C[C@@H](NC(=O)[C@@H]1CSCN1)[C@H]1C(=O)N2C(C(=O)O)=C(S[C@@H]3CN[C@H](C(=O)N4CC[C@@H](N)C4)C3)[C@H](C)[C@H]12` [Example 271]: the MIC in test [1] was 8 mg/L (≈ 14.9 µM); in test [2], 1 mg/L (≈ 1.86 µM); in test [3] it was 2 mg/L (≈ 3.71 µM); in test [4] it was 4 mg/L (≈ 7.43 µM).
For the molecule `CNC(=O)CC(=O)N[C@H](C)[C@H]1C(=O)N2C(C(=O)O)=C(S[C@@H]3CN[C@H](C(=O)N(C)C)C3)[C@H](C)[C@H]12` [Example 272], the MIC was greater than 128 mg/L in test [1], 64 mg/L (≈ 133 µM) in test [2], 128 mg/L (≈ 266 µM) in test [3] and 64 mg/L (≈ 133 µM) in test [4].
As to `CNCC(=O)N[C@H](C)[C@H]1C(=O)N2C(C(=O)O)=C(SC[C@H](N)C(=O)N3CC[C@@H](N)C3)[C@H](C)[C@H]12` [Example 273], the MIC in test [1] is 128 mg/L (≈ 273 µM); in test [2] it was 16 mg/L (≈ 34.1 µM); in test [3] it was 128 mg/L (≈ 273 µM); in test [4], 32 mg/L (≈ 68.3 µM).
For the molecule `CCCCN[C@H](C)[C@H]1C(=O)N2C(C(=O)O)=C(S[C@@H]3CN[C@H](C(=O)N(C)C)C3)[C@H](C)[C@H]12` [Example 274], the MIC is greater than 128 mg/L in test [1], 16 mg/L (≈ 36.5 µM) in test [2], 32 mg/L (≈ 73 µM) in test [3] and 16 mg/L (≈ 36.5 µM) in test [4].
Turning to `CNCC(=O)N[C@H](C)[C@H]1C(=O)N2C(C(=O)O)=C(S[C@@H]3CN[C@H](C(=O)N4CCC(N)(Cc5ccccc5)CC4)C3)[C@H](C)[C@H]12` [Example 275], the minimum inhibitory concentration (MIC) in test [1] was greater than 128 mg/L; in test [2], 16 mg/L (≈ 26.7 µM); in test [3] it was 64 mg/L (≈ 107 µM); in test [4] it was 64 mg/L (≈ 107 µM).
Turning to `CNCC(=O)N[C@H](C)[C@H]1C(=O)N2C(C(=O)O)=C(S[C@@H]3CN[C@H](C(=O)N4CCC(N)(C(N)=O)CC4)C3)[C@H](C)[C@H]12` [Example 277], the minimal inhibitory concentration (MIC) was 16 mg/L (≈ 29 µM) in test [1], 2 mg/L (≈ 3.63 µM) in test [2], 64 mg/L (≈ 116 µM) in test [3] and 4 mg/L (≈ 7.25 µM) in test [4].
The corresponding values for `CNCC(=O)N[C@H](C)[C@H]1C(=O)N2C(C(=O)O)=C(S[C@@H]3CN[C@H](C(=O)N4CCC(C)(N)CC4)C3)[C@H](C)[C@H]12` [Example 278] are 4 mg/L (≈ 7.65 µM), 2 mg/L (≈ 3.83 µM), 16 mg/L (≈ 30.6 µM) and 2 mg/L (≈ 3.83 µM).
The corresponding values for `CNCC(=O)N[C@H](C)[C@H]1C(=O)N2C(C(=O)O)=C(S[C@@H]3CN[C@H](C(=O)NC4CCOCC4)C3)[C@H](C)[C@H]12` [Example 279] are greater than 128 mg/L, 4 mg/L (≈ 7.85 µM), greater than 128 mg/L and 16 mg/L (≈ 31.4 µM).
On to `C[C@@H](NC(=O)[C@@H]1CS(=O)(=O)CN1)[C@H]1C(=O)N2C(C(=O)O)=C(S[C@@H]3CN[C@H](C(=O)N4CC[C@@H](N)C4)C3)[C@H](C)[C@H]12` [Example 280], for which the minimal inhibitory concentration (MIC) in test [1] came out at 16 mg/L (≈ 28 µM); in test [2] it was 8 mg/L (≈ 14 µM); in test [3], 64 mg/L (≈ 112 µM); in test [4] it was 8 mg/L (≈ 14 µM).
With `C[C@@H](NC(=O)[C@@H]1CS(=O)(=O)CN1)[C@H]1C(=O)N2C(C(=O)O)=C(S[C@@H]3CN[C@H](CNS(N)(=O)=O)C3)[C@H](C)[C@H]12` [Example 281], the MIC in test [1] was 64 mg/L (≈ 113 µM); in test [2] it was 8 mg/L (≈ 14.1 µM); in test [3], 32 mg/L (≈ 56.5 µM); in test [4], 16 mg/L (≈ 28.2 µM).
Taken in the same sequence, the figures for `CNCC(=O)N[C@H](C)[C@H]1C(=O)N2C(C(=O)O)=C(S[C@@H]3CN[C@H](CNC(=O)[C@@H]4C[C@H](F)CN4)C3)[C@H](C)[C@H]12` [Example 282] were 32 mg/L (≈ 60.8 µM), 1 mg/L (≈ 1.9 µM), 32 mg/L (≈ 60.8 µM) and 2 mg/L (≈ 3.8 µM).
Taken in the same sequence, the figures for `C[C@@H](NC(=O)Cn1cnnn1)[C@H]1C(=O)N2C(C(=O)O)=C(S[C@@H]3CN[C@H](C(=O)N(C)C)C3)[C@H](C)[C@H]12` [Example 283] were 8 mg/L (≈ 16.2 µM), 0.25 mg/L (≈ 0.508 µM), 16 mg/L (≈ 32.5 µM) and 0.5 mg/L (≈ 1.02 µM).
In the case of `C[C@@H](NC(=O)[C@H]1CS(=O)(=O)CN1)[C@H]1C(=O)N2C(C(=O)O)=C(S[C@@H]3CN[C@H](C(=O)N(C)C)C3)[C@H](C)[C@H]12` [Example 284], the MIC stood at 64 mg/L (≈ 121 µM) in test [1], 1 mg/L (≈ 1.89 µM) in test [2], 1 mg/L (≈ 1.89 µM) in test [3] and 4 mg/L (≈ 7.55 µM) in test [4].
For `C[C@@H](NC(=O)[C@H]1CNCCN1)[C@H]1C(=O)N2C(C(=O)O)=C(S[C@@H]3CN[C@H](C(=O)N(C)C)C3)[C@H](C)[C@H]12` [Example 285], the minimum inhibitory concentration (MIC) in test [1] is 128 mg/L (≈ 259 µM); in test [2], 4 mg/L (≈ 8.09 µM); in test [3], 64 mg/L (≈ 129 µM); in test [4], 8 mg/L (≈ 16.2 µM).
For `CNCC(=O)N[C@H](C)[C@H]1C(=O)N2C(C(=O)O)=C(S[C@@H]3CN[C@H](C(=O)N4C[C@@H](N)C[C@H]4C)C3)[C@H](C)[C@H]12` [Example 287], the MIC in test [1] was determined as 16 mg/L (≈ 31.5 µM); in test [2] it was 4 mg/L (≈ 7.86 µM); in test [3], 128 mg/L (≈ 252 µM); in test [4], 8 mg/L (≈ 15.7 µM).
In the case of `CNCC(=O)N[C@H](C)[C@H]1C(=O)N2C(C(=O)O)=C(S[C@@H]3CN[C@H](C(=O)N4C[C@H](N)C[C@H]4c4ccccc4)C3)[C@H](C)[C@H]12` [Example 288], the MIC in test [1] is greater than 128 mg/L; in test [2] it was 4 mg/L (≈ 7.01 µM); in test [3], 128 mg/L (≈ 224 µM); in test [4] it was 16 mg/L (≈ 28 µM).
Taken in the same sequence, the figures for `C[C@@H](NC(=O)C(F)F)[C@H]1C(=O)N2C(C(=O)O)=C(SC[C@@H]3CNCCN3)[C@H](C)[C@H]12` [Example 289] were greater than 128 mg/L, 8 mg/L (≈ 19.1 µM), 8 mg/L (≈ 19.1 µM) and 16 mg/L (≈ 38.2 µM).
In the case of `CNCC(=O)N[C@H](C)[C@H]1C(=O)N2C(C(=O)O)=C(S[C@@H]3CN[C@H](C(=O)N4CC5CC4CN5)C3)[C@H](C)[C@H]12` (some centres unmarked) [Example 290], the MIC amounted to 8 mg/L (≈ 15.8 µM) in test [1], 2 mg/L (≈ 3.95 µM) in test [2], 32 mg/L (≈ 63.2 µM) in test [3] and 4 mg/L (≈ 7.9 µM) in test [4].
